Data on two compounds can be found in patent US10494683B2, “Nitrate- and nitrite-reducing probiotic feed additive” (The United States of America, as represented by the …, priority 2015, dated 2019).

Assay [1] deals with mixed ruminal microorganisms. In words: CH4 production in vitro with mixed ruminal microorganisms. The format is cell-based.
For assay [2], the system named is Holstein steers. Description: Ruminally cannulated steers given NaNO3 with or without strain NRRL 67118. The format is in vivo. The settings on record: rumen samples of treated steers incubated in vitro.

Consider `O=N[O-].[Na+]` [NO2, NaNO2], for which the CH4 production entry in assay [1] is recorded as “zero”.

As to `O=[N+]([O-])[O-].[Na+]` [NO3, NaNO3], in assay [2] (83 mg NaNO3/kg body weight daily, Control 4.13), the dCH4/dt is 2.22 b umol/ml per h. For the same compound, the Nitrate reduction in assay [2] (Control 0.42) came out at 0.54 e mM/hr. This compound also had a Nitrite reduction in assay [2] (Control 1.21) of 1.38 c mM/hr.
